Data: paper PMC5234776, “Study of the Antimicrobial Activity of Tilapia Piscidin 3 (TP3) and TP4 and Their Effects on Immune Functions in Hybrid Tilapia (Oreochromis spp.)” (PLoS ONE, 2017)
Where two headings read alike, the source gives them in different places. Peptide text beside a SMILES is read from it.

Tests used:
in vivo = experiment: in vivo; parameters: species or system tilapia (Oreochromis hybrids, Tilapia spp.); conditions: iv, 0.2 mg/kg
Procedure: The peptide half-life of TP3 and TP4 were investigated in male tilapia (Oreochromis hybrids, Tilapia spp., with a mean body length of 32.33±1.5 cm and a mean body weight of 1117±78.2 g) after intravenous administration of a single dose of 0.2 mg/kg of peptide. The TP3 and TP4 concentrations in serum samples were determined at 10, 30, 60, 120, 180, 240, 300, and 360 minutes for TP3 and at 10, 60, 120, 180, 240, 300, and 360 minutes after dosing for TP4. At each sample collection time point, we anesthetized three fish and collected their blood. The blood was centrifuged to obtain fish serum, which was assessed by liquid chromatography-mass spectrometry/mass spectrometry (LC-MS/MS) at Mission Biotech (Taipei, Taiwan).

tilapia = experiment: Toxicity of peptide alone, tilapia survival; type: in vivo, tilapia (Oreochromis spp.); conditions: abdominal cavity, no infection, seven days (S2 Fig)
Procedure: The antimicrobial activities of TP3 and TP4 peptides were analyzed in tilapia infected with lethal amounts of bacteria. Different amounts of V. vulnificus were injected into the abdominal cavities of the fish, and survival rates were recorded as cumulative percentages (S1 Fig). To determine whether TP3 and TP4 had any toxic effects on the tilapia, we injected different doses of TP3 and TP4 (0.1, 1, 10, 20, 30, 40, or 50 μg/fish) into the abdominal cavity and recorded the cumulative survival percentage of the fish (S2 Fig). We also co-treated tilapia with different doses (0.1, 1, 10, 20 μg/fish) of TP3 or TP4 combined with 2x10^4 CFU of V. vulnificus to evaluate tilapia survival following treatment. […] After 14, 21, or 28 days following the first co-treatment with TP3, the tilapia that survived in the 20 μg/fish TP3 experimental group were injected with a second dose of 2x10^4 CFU of V. vulnificus, and the survival rates were measured for another seven days. […] In the co-treatment experiments, at 14, 21, or 28 days after the first co-treatment with TP4, the surviving tilapia in the 20 μg/fish TP4 experimental group received a second injection of 2x10^4 CFU of V. vulnificus, and the survival rates were measured for another seven days.
Supplementary file pone.0169678.s002.pdf: S2 Fig Determination of tilapia survival rates seven days after injection with different concentrations of TP3 or TP4. (a) The survival rates of tilapia injected with TP3 at a dose of 0.1 μg/fish, 1 μg/fish, or 10 μg/fish. (b) The percentage of tilapia surviving after injection with TP4 at 0.1 μg/fish, 1 μg/fish, or 10 μg/fish. (c) The percentage of tilapia surviving after injection with TP3 at 20 μg/fish, 30 μg/fish, 40 μg/fish, or 50 μg/fish. (d) The percentage of tilapia surviving after injection with TP4 at 20 μg/fish, 30 μg/fish, 40 μg/fish, or 50 μg/fish. The control group (control) was injected with PBS alone. (PDF) Click here for additional data file.

V. vulnificus = type: cell-based, Vibrio vulnificus
Procedure: To understand the effects of pH on TP3 or TP4, the reagents were dissolved in ddH2O, 1 M HCl or 1 M NaOH to obtain solutions with different pH values. For the temperature-dependent functional study, the TP3 or TP4 was added to a solution in a water bath (Basic life, model BL3002, Taiwan) and incubated for 60 minutes at different temperatures (40, 60, 80, or 100°C). To evaluate the effects of TP3 and TP4 on pepsin and trypsin function, each peptide was incubated for 10 or 30 minutes with different concentrations of pepsin or trypsin (0.1, 1, or 10 μg/ml), and we determined the MIC values after incubating these solutions with cells at 28°C for 720 minutes, according to a previously described MIC experimental protocol.

SMILES	half-life of the injected peptide in tilapia serum (in vivo)	percent survival after injection of peptide only (tilapia; 20 μg/fish)	percent survival after injection of peptide only (tilapia; 30 μg/fish)	percent survival after injection of peptide only (tilapia; 40 μg/fish)	percent survival after injection of peptide only (tilapia; 50 μg/fish)	decrease of antimicrobial activity (V. vulnificus; pepsin 0.1 μg/ml, 30 minutes)	decrease of antimicrobial activity (V. vulnificus; pepsin 1 μg/ml, 10 minutes)	decrease of antimicrobial activity (V. vulnificus; trypsin 1 μg/ml, 10 minutes)	decrease of antimicrobial activity (V. vulnificus; trypsin 1 μg/ml, 30 minutes)	decrease of antimicrobial activity (V. vulnificus; trypsin 10 μg/ml, 10 minutes)
CC[C@H](C)[C@H](NC(=O)[C@H](CC(C)C)NC(=O)[C@H](CO)NC(=O)[C@H](Cc1c[nH]cn1)NC(=O)[C@@H](NC(=O)[C@H](Cc1c[nH]cn1)NC(=O)[C@H](CCCCN)NC(=O)CNC(=O)[C@@H](NC(=O)[C@H](CO)NC(=O)[C@H](Cc1ccccc1)NC(=O)[C@H](CC(C)C)NC(=O)CNC(=O)CNC(=O)[C@@H](NC(=O)[C@@H](NC(=O)[C@H](Cc1c[nH]cn1)NC(=O)[C@H](Cc1c[nH]cn1)NC(=O)[C@@H](NC(=O)[C@@H](N)Cc1ccccc1)[C@@H](C)CC)[C@@H](C)CC)[C@@H](C)CC)C(C)C)[C@@H](C)CC)C(=O)N[C@@H](Cc1c[nH]cn1)C(=O)NCC(=O)N[C@@H](Cc1c[nH]cn1)C(=O)O [TP3, tilapia piscidin 3] (H-FIHHIIGGLFSVGKHIHSLIHGH-OH)	2 to 3 h	86.7%	73.3%	66.7%	56.7%	–	–	–	–	–
CC[C@H](C)[C@H](NC(=O)[C@H](C)NC(=O)[C@H](CCCCN)NC(=O)CNC(=O)[C@H](C)NC(=O)[C@H](CO)NC(=O)[C@H](Cc1ccccc1)NC(=O)[C@H](CC(C)C)NC(=O)CNC(=O)CNC(=O)[C@@H](NC(=O)[C@@H](NC(=O)[C@H](Cc1c[nH]cn1)NC(=O)[C@H](Cc1c[nH]cn1)NC(=O)[C@@H](NC(=O)[C@@H](N)Cc1ccccc1)[C@@H](C)CC)[C@@H](C)CC)[C@@H](C)CC)C(=O)N[C@@H](Cc1c[nH]cn1)C(=O)N[C@@H](CCCNC(=N)N)C(=O)N[C@@H](CC(C)C)C(=O)N[C@H](C(=O)N[C@@H](CCCNC(=N)N)C(=O)N[C@@H](CCCNC(=N)N)C(=O)N[C@@H](CCCNC(=N)N)C(=O)N[C@@H](CCCNC(=N)N)C(=O)N[C@@H](CCCNC(=N)N)C(=O)O)[C@@H](C)CC [TP4, tilapia piscidin 4] (H-FIHHIIGGLFSAGKAIHRLIRRRRR-OH)	–	–	–	–	–	eight-fold	two-fold	two-fold	four-fold	eight-fold
